Source: ChEMBL document CHEMBL1143399, “A small-molecule nitroimidazopyran drug candidate for the treatment of tuberculosis” (Nature, 2000)
In brackets after ≈: the same amount, converted by molar mass. Activity calls are given as the source filed them. The calls are words filed in the database; no cut-off is given here.

Assays:
[1] = tested on: Mycobacterium tuberculosis; test: Antimicrobial activity against log phase recombinant Mycobacterium tuberculosis H37Rv-lux with plasmid MV361 at 10 ug/ml incubated for 7 days assessed as bacterial count after 4 days; format: functional
[2] = tested on: Mycobacterium tuberculosis; test: Antimicrobial activity against log phase recombinant Mycobacterium tuberculosis H37Rv-lux with plasmid MV361 at 10 ug/ml incubated for 7 days assessed as bacterial count; format: functional
[3] = tested on: Mycobacterium tuberculosis; test: Antimycobacterial activity against pan-susceptible Mycobacterium tuberculosis TN913; format: functional
[4] = tested on: Mycobacterium tuberculosis; test: Antimycobacterial activity against pan-susceptible Mycobacterium tuberculosis TN1037; format: functional
[5] = tested on: Mycobacterium tuberculosis; test: Antimycobacterial activity against pan-susceptible Mycobacterium tuberculosis TN2524; format: functional
[6] = tested on: Mycobacterium tuberculosis; test: Antimycobacterial activity against pan-susceptible Mycobacterium tuberculosis TN1051; format: functional
[7] = tested on: Mycobacterium tuberculosis; test: Antimycobacterial activity against pan-susceptible Mycobacterium tuberculosis TN1008; format: functional
[8] = tested on: Mycobacterium tuberculosis; test: Antimycobacterial activity against pan-susceptible Mycobacterium tuberculosis TN3183; format: functional
[9] = tested on: Mycobacterium tuberculosis; test: Antimycobacterial activity against pan-susceptible Mycobacterium tuberculosis TN4259; format: functional
[10] = tested on: Mycobacterium tuberculosis; test: Antimycobacterial activity against pan-susceptible Mycobacterium tuberculosis TN1040; format: functional
[11] = tested on: Mycobacterium tuberculosis; test: Antimycobacterial activity against pan-susceptible Mycobacterium tuberculosis TN3979; format: functional
[12] = tested on: Mycobacterium tuberculosis; test: Antimycobacterial activity against pan-susceptible Mycobacterium tuberculosis H37Rv; format: functional
[13] = tested on: Mycobacterium tuberculosis; test: Antimycobacterial activity against pan-susceptible Mycobacterium tuberculosis TN2351; format: functional
[14] = tested on: Mycobacterium tuberculosis; test: Antimycobacterial activity against pan-susceptible Mycobacterium tuberculosis TN1082; format: functional
[15] = tested on: Mycobacterium tuberculosis; test: Antimycobacterial activity against Mycobacterium tuberculosis H37Rv ATCC 27294 infected in Hartley guinea pig assessed as reduction in mycobacterial burden in lung at 40 mg/kg, po daily after 30 days of infection for 30 days relative to isoniazid; format: functional, organism-based; set-up: dose 40 mg/kg
[16] = tested on: Mycobacterium tuberculosis; test: Antimycobacterial activity against Mycobacterium tuberculosis H37Rv with plasmid MH102 infected in BALB/c mouse assessed as reduction in mycobacterial burden in lung at 25 mg/kg, po daily after 4 days of infection for 10 days relative to isoniazid; format: functional, organism-based; set-up: dose 25 mg/kg
Mus musculus [17] = test: Acute toxicity in Mycobacterium tuberculosis H37Rv infected BALB/c mouse at >1000 mg/kg, po single dose; format: organism-based; conditions: in vivo
[18] = tested on: Mycobacterium tuberculosis; test: Antimycobacterial activity against Mycobacterium tuberculosis H37Rv with plasmid MH102 infected in BALB/c mouse assessed as reduction in mycobacterial burden in lung at 100 mg/kg, po daily after 4 days of infection for 7 to 60 days relative to isoniazid; format: functional, organism-based; set-up: dose 100 mg/kg
[19] = tested on: Mycobacterium tuberculosis; test: Antimycobacterial activity against Mycobacterium tuberculosis H37Rv ATCC 27294 infected in Hartley guinea pig assessed as reduction in mycobacterial burden in spleen at 40 mg/kg, po daily after 30 days of infection for 30 days relative to isoniazid; format: functional, organism-based; set-up: dose 40 mg/kg
[20] = tested on: Mycobacterium tuberculosis; test: Antimycobacterial activity against Mycobacterium tuberculosis clinical isolate IS6110 infected in mouse at 25 mg/kg, po; format: functional, organism-based; set-up: dose 25 mg/kg
[21] = tested on: Mycobacterium tuberculosis; test: Antimycobacterial activity against Mycobacterium tuberculosis H37Rv with plasmid MH102 infected in BALB/c mouse assessed as reduction in mycobacterial burden in lung at 50 mg/kg, po daily after 4 days of infection for 7 to 60 days relative to isoniazid; format: functional, organism-based; set-up: dose 50 mg/kg
Mus musculus [22] = test: Chronic toxicity in Mycobacterium tuberculosis H37Rv infected BALB/c mouse at >500 mg/kg, po for 28 days; format: organism-based; conditions: in vivo, 672 h
[23] = tested on: Mycobacterium tuberculosis; test: Antimycobacterial activity against Mycobacterium tuberculosis H37Rv with plasmid MH102 infected in BALB/c mouse assessed as reduction in mycobacterial burden in spleen at 25 mg/kg, po daily after 4 days of infection for 10 days relative to isoniazid; format: functional, organism-based; set-up: dose 25 mg/kg

CCC1Cn2cc([N+](=O)[O-])nc2O1 (stereo unspecified)
log10cfu [1]: 1.5 | log10cfu [2]: 1.8

NNC(=O)c1ccncc1 [ISONIAZID]
log10cfu [1]: 1 | MIC [3]: 0.03 µg/mL (≈ 0.219 µM) | MIC [4]: 0.03 µg/mL (≈ 0.219 µM) | MIC [5]: 0.06 µg/mL (≈ 0.438 µM) | MIC [6]: 0.03 µg/mL (≈ 0.219 µM) | MIC [7]: 0.06 µg/mL (≈ 0.438 µM) | MIC [8]: 0.03 µg/mL (≈ 0.219 µM) | MIC [9]: 0.03 µg/mL (≈ 0.219 µM) | MIC [10]: 0.03 µg/mL (≈ 0.219 µM) | MIC [11]: 0.06 µg/mL (≈ 0.438 µM) | MIC [12]: 0.03 µg/mL (≈ 0.219 µM) | MIC [13]: 0.06 µg/mL (≈ 0.438 µM) | log10cfu [2]: 1.4 | MIC [14]: 0.03 µg/mL (≈ 0.219 µM)

Cc1ncc([N+](=O)[O-])n1CCO [METRONIDAZOLE]
log10cfu [1]: 3.2 | log10cfu [2]: 2.8

O=[N+]([O-])c1cn2c(n1)OC[C@@H](OCc1ccc(OC(F)(F)F)cc1)C2 [PRETOMANID]
log10cfu [1]: 3.1 | Activity [15]: Active | MIC [3]: 0.06 µg/mL (≈ 0.167 µM) | MIC [4]: 0.06 µg/mL (≈ 0.167 µM) | MIC [5]: 0.25 µg/mL (≈ 0.696 µM) | MIC [6]: 0.06 µg/mL (≈ 0.167 µM) | MIC [7]: 0.06 µg/mL (≈ 0.167 µM) | Activity [16]: Active | Activity (Mus musculus [17]): Toxic | MIC [8]: 0.015 µg/mL (≈ 0.0418 µM) | Activity [18]: Active | MIC [9]: 0.06 µg/mL (≈ 0.167 µM) | Activity [19]: Active | Activity [20]: Active | MIC [10]: 0.13 µg/mL (≈ 0.362 µM) | Activity [21]: Active | Activity (Mus musculus [22]): Toxic | MIC [11]: 0.13 µg/mL (≈ 0.362 µM) | MIC [12]: 0.13 µg/mL (≈ 0.362 µM) | MIC [13]: 0.06 µg/mL (≈ 0.167 µM) | log10cfu [2]: 3.5 | Activity [23]: Active | MIC [14]: 0.06 µg/mL (≈ 0.167 µM)
